The record followed here is publication PMC11662004 (Communications Chemistry, 2024).

In this data set the test system is TET2CDΔLCI. The experiment in a line: Continuous reaction monitoring (1H NMR), 2OG decarboxylation. The format is biochemical, human. To be noted: Supp Fig 10 a. How it is done:
Double-stranded DNA oligomers were added at a final concentration of 20 µM. Data plotted from two independent replicates (n = 2). Initial rates reported as the mean of two independent replicates (n = 2). TEXT PRINTED IN THE PICTURE: (c) No DNA: V0 (μM min^−1) NgTet1: 0.36; V0 (μM min^−1) TET2: 1.28; Relative V0 NgTet1: 1; Relative V0 TET2: 1 | (c) ^5HC DNA: V0 (μM min^−1) NgTet1: 1.30; V0 (μM min^−1) TET2: 6.34; Relative V0 NgTet1: 3.6; Relative V0 TET2: 5.0 | (c) AT DNA: V0 (μM min^−1) NgTet1: 0.82; V0 (μM min^−1) TET2: 5.78; Relative V0 NgTet1: 2.3; Relative V0 TET2: 4.5 | (c) ^5mC DNA: V0 (μM min^−1) NgTet1: 1.52; V0 (μM min^−1) TET2: 6.79; Relative V0 NgTet1: 4.2; Relative V0 TET2: 5.3
All ^1H NMR spectra were recorded at 25 °C using D2O as a reference for internal deuterium lock on a Bruker Avance III 700 MHz equipped with an inverse TCI cryoprobe in 3 or 5 mm diameter tubes with a total sample volume of 160 or 565 μL, respectively. The water signal was reduced using Perfect Echo excitation sculpting suppression. Chemical shifts are reported in ppm relative to D2O (δH = 4.70 ppm).
Spectrometer settings were determined using a control sample containing all reaction components excluding enzyme. TET enzyme was added to an identical sample, and the resulting assay mixture was transferred to an NMR tube before deposition into the instrument. […] Data acquisition was started following a brief spectrometer setting optimisation (up to 200 s delay between enzyme addition and data acquisition); 8–32 scans were accumulated for a single spectrum, corresponding to 65–179 s of acquisition time. Spectrum recordings were carried out consecutively without delay. Data were processed using automated routines on MestReNova v14.2.0; signals of interest were integrated with absolute intensity scaling. ^1H NMR time courses reported in figures are representative results from two or three independent replicates.

Regarding “5HC DNA: non-methylated DNA of the same sequence, 5'-ACC ACC GGT GGT-3', non-substrate (DNA ACCACCGGTGGT; DNA, backbone not given here)”, the succinate worked out at 2.2 µM (Time 0 min); 3.9 µM (Time 2.5 min); 6.5 µM (Time 5 min); 9.5 µM (Time 7.5 min); 12.4 µM (Time 10 min); 17.3 µM (Time 15 min). The substance also gave a succinate (Time 20 min) of 21.5 µM.
